# Data: PMC10618793, “Investigating cannabinoids as P2X purinoreceptor 4 ligands by using surface plasmon resonance and computational docking” (Heliyon, 2023)
# Several values for one entry are separate records, joined by “and”; a condition that tells them apart may be missing. Equal values may be shown once. Entries after “also recorded” stand apart in the source; their conditions may differ. Read-outs that look alike come from different tables or passages of the source.
# Experiments:
# P2X4 receptor [1] = target: T1, P2X4 receptor (Homo sapiens, UniProt Q99571); assay: Surface plasmon resonance binding screening assay; details: for binding affinity with P2X4 (in words) / RU (Response Units) values compared with theoretical Rmax: SPR screening; for binding affinity with P2X4 (in words) / Kd / koff / kon: 0.4-300 μM; for Kd / koff / kon: SPR Biacore T200, P2X4 immobilized on CM5 chip, 1:1 binding model, n.d. = not detectable; for koff: read-out: Koff (dissociation rate); for kon: read-out: Kon (association rate); for association/dissociation phase with P2X4 (sensorgram, in words): SPR screening sensorgrams, Fig. 3; for RU (Response Units) values compared with theoretical Rmax: attributed to matrix binding effects
# T1 construct: His tag (N); purchased MyBioSource, Inc (San Diego, CA, USA)
# T1 sequence (Q99571 77-338): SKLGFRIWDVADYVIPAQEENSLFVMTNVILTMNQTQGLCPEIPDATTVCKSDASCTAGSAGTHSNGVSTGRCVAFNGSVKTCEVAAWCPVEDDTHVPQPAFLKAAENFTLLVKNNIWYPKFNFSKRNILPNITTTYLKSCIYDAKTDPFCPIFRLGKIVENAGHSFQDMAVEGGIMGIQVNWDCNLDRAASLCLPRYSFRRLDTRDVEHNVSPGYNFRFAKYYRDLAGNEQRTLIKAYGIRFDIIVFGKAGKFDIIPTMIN
# P2X4 receptor [2] = target: T1, P2X4 receptor; assay: Surface plasmon resonance competitive binding assay; details: for Response Unit (RU): 5-BDBD alone, 1:1 combination, 5 or 1 μM; for type of binding on P2X4 relative to 5-BDBD: experimental 1:1 combination RU compared with theoretical RU values; for experimental binding response unit (RU): validation BX430 vs 5-BDBD, single binders at 1 μM and 1:1 combination, Fig. 4B
# Protocol: Recombinant human P2X4 (500 μg/mL stock solution in Dnase free water) was diluted to 40 μg/mL in sodium acetate 4.0. The protein was immobilized on a CM5 chip based on an amine coupling method as previously described with minor modification. Briefly, the immobilization method involved five phases. First, a stable baseline was established, and a response was observed. […] Both binding association and dissociation were identified as ethanolamine hydrochloride (1 M; pH 8.5) deactivated unreacted NHS-esters and removed electrostatically bound ligands with a contact time of 420 s and a flow rate of 10 μL/min. Completion of all five phases indicated successful immobilization of the P2X4 protein on the SPR sensor chip.
# A competitive SPR binding assay was designed to narrow down the cannabinoids’ binding site on P2X4. […] Both compounds were dissolved in DMSO at 10 mM and diluted to 10 μM in PBS (20 mM). […] Subsequently, they were diluted to a working concentration of 10 μM using PBS (20 mM) as the diluent. For individual runs, each antagonist was further diluted with the running buffer, composed of PBS (20 mM) with 3 % DMSO, resulting in a final concentration of 1 μM. To evaluate the interaction of both antagonists simultaneously, a 1:1 combination ratio was employed. Glycine, at a pH of 2.5 was utilized as the regeneration buffer. Additionally, solvent correction cycles were incorporated, consisting of eight correction points ranging from 2.5 % to 3.8 % of DMSO content, ensuring accurate data interpretation during the experimental procedure.
# Compounds were initially prepared at a concentration of 10 mM in DMSO and subsequently diluted in PBS (20 mM) to either 10 or 2 μM, depending on the binding response unit (RU) observed during the binding screening assays. For individual evaluations, compounds were diluted in a 1:1 combination ratio with the running buffer, PBS (20 mM) + 3 % DMSO, to either 5 or 1 μM.
# These mixtures were subsequently diluted to either 5 or 1 μM using the running buffer.
# The theoretical non-competitive value was calculated as the sum of the experimental RU values of the cannabinoid and BX430, or the cannabinoid and 5-BDBD. The combined experimental RU value was compared to both the competitive and non-competitive theoretical RU values to determine the type of binding.
# human P2X4 = details: HEK293 cells expressing human P2X4; cited from earlier work
# P2X4 = tested on: P2X4; set-up: method as in PMID 28588493; details: selective non-competitive (allosteric) antagonist of P2X4; cited from earlier work
# [3] = KD (equilibrium dissociation constant)
# [4] = read-out: KD (equilibrium dissociation constant)
SMILES,binding affinity with P2X4 (in words) (P2X4 receptor [1]),Kd (P2X4 receptor [1]; [3]),koff (P2X4 receptor [1]),kon (P2X4 receptor [1]),other results
"CCCCCc1cc(O)c2c(c1)OC1(C)CCC3C1C2C3(C)C (stereo not drawn) [CBL, cannabicyclol]",did not demonstrate any binding affinity,–,–,–,–
"CCCCCc1cc(O)c2c(c1)OC(C)(C)c1ccc(C)cc1-2 [CBN, cannabinol]",did not demonstrate any binding affinity,–,–,–,–
"C=C(C)[C@@H]1CCC(C)=C[C@H]1c1c(O)cc(CCCCC)cc1O [CBD, cannabidiol]",–,1 µM,0.02 s⁻¹,19200 M⁻¹ s⁻¹,"Response Unit (RU) (P2X4 receptor [2]; Fig. 6A: CBD alone): 6.9 RU; type of binding on P2X4 relative to 5-BDBD (P2X4 receptor [2]): competitive P2X4-binders; also recorded: competitive binding; Kd (P2X4 receptor [1]; [4]): 1.04 µM; association/dissociation phase with P2X4 (sensorgram, in words) (P2X4 receptor [1]): slow dissociation phase"
"C=C(C)c1ccc(C)cc1-c1c(O)cc(CCCCC)cc1O [CBND, cannabinodiol]",–,84 µM,0.128 s⁻¹,1520 M⁻¹ s⁻¹,Kd (P2X4 receptor [1]; [4]): 84.2 µM; RU (Response Units) values compared with theoretical Rmax (P2X4 receptor [1]): higher than the theoretical Rmax
"CCCCCCCc1cc(O)c2c(c1)OC(C)(C)C1CCC(C)=CC21 (stereo not drawn) [THCP, Δ^9-tetrahydrocannabiphorol]",did not demonstrate any binding affinity,–,–,–,–
"CCCc1cc(O)cc(O)c1C(=O)O [Varinolic acid, varinolic acid]",did not demonstrate any binding affinity,–,–,–,–
"C=C(C)C1CCC(C)=CC1c1c(O)cc(CCCC)cc1O (stereo not drawn) [CBDB, cannabidibutol]",did not demonstrate any binding affinity,–,–,–,–
"CCCc1cc(O)c2c(c1)OC(C)(CCC=C(C)C)C=C2 (stereo not drawn) [CBCV, cannabichromevarin]",did not demonstrate any binding affinity,–,–,–,–
"CCCCCc1cc2c(c(O)c1C(=O)O)[C@@H]1CC(C)=CC[C@H]1C(C)(C)O2 [Δ^8-THCA-A, Δ^8-trans-tetrahydrocannabinolic acid A]",–,76 µM and 76.4 µM,0.0812 s⁻¹,1060 M⁻¹ s⁻¹,"association/dissociation phase with P2X4 (sensorgram, in words) (P2X4 receptor [1]): slow association and dissociation phases; RU (Response Units) values compared with theoretical Rmax (P2X4 receptor [1]): higher than the theoretical Rmax"
"C=C(C)[C@@H]1CCC(C)=C[C@H]1c1c(O)cc(CCCCC)c(C(=O)O)c1O [CBDA, cannabidiolic acid]",did not demonstrate any binding affinity,–,–,–,–
"C=C(C)[C@@H]1C[C@H](O)C(C)=C[C@H]1c1c(O)cc(CCCCC)cc1O [6α–OH–CBD, 6α-hydroxy cannabidiol]",–,340 µM and > 10 µM,0.427 s⁻¹,1270 M⁻¹ s⁻¹,Kd (P2X4 receptor [1]; [4]): 337 µM; RU (Response Units) values compared with theoretical Rmax (P2X4 receptor [1]): higher than the theoretical Rmax
"C=C(C)C1CCC(C)=CC1c1c(O)cc(CCCCCCC)cc1O (stereo not drawn) [CBDP, cannabidiphorol]",did not demonstrate any binding affinity,–,–,–,–
"CCCCCc1cc(O)c2c(c1)OC(C)(CCC=C(C)C)C=C2 (stereo not drawn) [CBC, cannabichromene]",did not demonstrate any binding affinity,–,–,–,–
"CCCCCc1cc(O)c(C/C=C(\C)CCC=C(C)C)c(O)c1 [CBG, cannabigerol]",did not demonstrate any binding affinity,–,–,–,–
"CCCCc1cc(O)c2c(c1)OC(C)(C)C1CCC(C)=CC21 (stereo not drawn) [THCB, Δ^9-tetrahydrocannabibutol]",did not demonstrate any binding affinity,–,–,–,–
"CCCc1cc(O)c(C/C=C(\C)CCC=C(C)C)c(O)c1C(=O)O [CBGVA, cannabigerovarinic acid]",–,–,0.174 s⁻¹,1890 M⁻¹ s⁻¹,"Kd (P2X4 receptor [1]; [4]): 92 µM; association/dissociation phase with P2X4 (sensorgram, in words) (P2X4 receptor [1]): slow association and dissociation phases; RU (Response Units) values compared with theoretical Rmax (P2X4 receptor [1]): higher than the theoretical Rmax"
"O=C1CN=C(c2cccc(Br)c2)c2oc3ccccc3c2N1 [5-BDBD, reference compound]",–,–,–,–,Response Unit (RU) (P2X4 receptor [2]; Fig. 6A: CBD alone): 5.8 RU; Response Unit (RU) (P2X4 receptor [2]; Fig. 6E: CBV alone): 6.4 RU; experimental binding response unit (RU) (P2X4 receptor [2]): 34.9 RU; IC50 (human P2X4): […]
"CCCc1cc(O)c2c(c1)OC(C)(C)c1ccc(C)cc1-2 [CBV, cannabivarin]",–,16.4 µM,0.0405 s⁻¹,2470 M⁻¹ s⁻¹,"Response Unit (RU) (P2X4 receptor [2]; Fig. 6E: CBV alone): 0.9 RU; type of binding on P2X4 relative to 5-BDBD (P2X4 receptor [2]): competitive P2X4-binders; also recorded: competitive binding; association/dissociation phase with P2X4 (sensorgram, in words) (P2X4 receptor [1]): slow dissociation phase"
"CCCCCc1cc(O)c(C/C=C(\C)CCC=C(C)C)c(O)c1C(=O)O [CBGA, cannabigerolic acid]",–,140 µM and > 10 µM,0.119 s⁻¹,824 M⁻¹ s⁻¹,"Kd (P2X4 receptor [1]; [4]): 144 µM; association/dissociation phase with P2X4 (sensorgram, in words) (P2X4 receptor [1]): slow association and dissociation phases"
"C=C(C)[C@@H]1CCC(C)=C[C@H]1c1c(O)cc(CCC)cc1O [CBDV, cannabidivarin]",–,9.9 µM,0.12 s⁻¹,12100 M⁻¹ s⁻¹,Kd (P2X4 receptor [1]; [4]): 9.91 µM
"CC(C)=CCC/C(C)=C/Cc1c(O)cc(C)c(C(=O)O)c1O [CBGOA, cannabigerorcinic acid]",–,140 µM and > 10 µM,0.375 s⁻¹,2720 M⁻¹ s⁻¹,Kd (P2X4 receptor [1]; [4]): 138 µM; RU (Response Units) values compared with theoretical Rmax (P2X4 receptor [1]): higher than the theoretical Rmax
"CC(C)c1cc(Br)c(NC(=O)Nc2cccnc2)c(Br)c1 [BX430, reference compound]",–,–,–,–,experimental binding response unit (RU) (P2X4 receptor [2]): 22.5 RU; IC50 (P2X4): 0.54 µM
"C=C(C)[C@@H]1CCC(C)=C[C@H]1c1c(O)cc(CCCCC)c(C(=O)OC)c1O [CBDAME, cannabidiolic acid methyl ester]",did not demonstrate any binding affinity,–,–,–,–
"CCCc1cc(O)c(C/C=C(\C)CCC=C(C)C)c(O)c1 [CBGV, cannabigerovarin]",–,–,–,–,"association/dissociation phase with P2X4 (sensorgram, in words) (P2X4 receptor [1]): slow dissociation phase"
CCCCCc1cc(O)c2c(c1)OC(C)(C)C1CCC(CO)=CC21 (stereo not drawn) [11-OH-THC],–,6.31 µM,0.0742 s⁻¹,11800 M⁻¹ s⁻¹,–
"CCCCCc1cc(O)c(C/C=C(\C)CCC=C(C)C)c(OC)c1 [CBGM, cannabigerol monomethyl ether]",did not demonstrate any binding affinity,–,–,–,–
"CCCCCc1cc2c(c(O)c1C(=O)O)[C@@H]1C=C(C)CC[C@H]1C(C)(C)O2 [THCA-A, Δ^9-tetrahydrocannabinolic acid A]",–,117 µM,0.101 s⁻¹,866 M⁻¹ s⁻¹,"association/dissociation phase with P2X4 (sensorgram, in words) (P2X4 receptor [1]): slow association and dissociation phases; RU (Response Units) values compared with theoretical Rmax (P2X4 receptor [1]): higher than the theoretical Rmax"
